Data taken from PMC8962522, “Direct interaction of TrkA/CD44v3 is essential for NGF-promoted aggressiveness of breast cancer cells” (Journal of Experimental & Clinical Cancer Research : CR, 2022).
“Also recorded” adds a separate entry of the source.

Tests used:
[1] = test system: CD44v3 (CD44v3-His, whole cell extracts of COS-7 cells expressing CD44v3); assay: MST binding of NGF, TrkA or FGF to CD44v3; settings: whole cell extracts of COS-7 expressing CD44v3, NGF alone, TrkA alone or FGF control
Experimental: MST was conducted using an NT.115 A Pico MST instrument (Nano Temper Technologies GmbH) equipped with red and blue filter sets. The TrkA-His tagged extracellular domain protein (Ala 34-Gly423) (9966-TK-050; R&D Systems, United Kingdom), diluted to 200 nM in PBS-T buffer (supplied by the vendor), was labeled using a Monolith His-Tag Labeling Kit with RED-Tris-NTA (Nano Temper). The RED-Tris-NTA dye was diluted in PBS-T to 100 nM. The mix was incubated at RT in the dark for 30 min. Next, an extract expressing CD44v3-labeled protein (CD44v3-His) and ligand and/or TrkA was mixed at a 1:1 ratio and incubated at RT in the dark for 15 min. For the binding check, peptides and TrkA-His were used. Capillaries were filled individually and loaded into the instrument. The data were acquired using high MST power and 100% LED. The data were analyzed using MO Control Software (Nano Temper).
Fig. 1 The C-terminal region of CD44 variant 3 binds to TrkA. A Schematic representation of the CD44 gene and protein structure. Alternative splicing leads to the expression of CD44 variants, thus the insertion of exon 8 leads to the expression of a CD44 protein containing variant 3 (CD44v3) and the insertion of exon 11 leads to the expression of a CD44 containing variant 6 (CD44v6) (B) TrkA/CD44v3 complex formation in COS-7 cells expressing TrkA and CD44v3 was detected by the proximity ligation assay (PLA), which was performed 0, 5 and 30 min after the initiation of NGF (100 ng/ml) treatment. The images represent signals detected by PLA. Quantification of the red spots was performed by ImageJ software (30 randomly chosen fields per condition of three different experiments). Statistical analyses were performed using one-way ANOVA followed by Bonferroni’s posttest. Error bars represent the standard error of the mean (S.E.M.); *** p < 0.001. ns, nonsignificant. C NGF and/or TrkA binding to CD44v3 was measured by microscale thermophoresis (MST). MST experiments were performed on whole cell extracts of COS-7 cells expressing CD44v3. […]

[2] = test system: TrkA/CD44 complex in COS-7 cells transfected with TrkA and CD44s or CD44v6; assay: PLA TrkA/CD44s or TrkA/CD44v6 complex formation in COS-7 cells; format: cell-based, African green monkey (COS-7 cells); settings: NGF 100 ng/ml, 0, 5 or 30 min
Experimental: Cells (10,000 cells per well) were grown on acid-washed eight-well glass slides (Thermo Scientific) in the appropriate medium supplemented with 10% FBS for 24 h. After NGF treatment, paraformaldehyde (PAF)-fixed cells were incubated with 4% bovine serum albumin (BSA) or 5% FBS (for 1 h at 20 °C), followed by overnight incubation with primary antibodies (rabbit anti-TrkA or rabbit anti-IgG + mouse anti-pan-CD44; mouse anti-CD44v3; mouse anti-CD44v6; mouse anti-IgG2a; mouse anti-IgG2b; or mouse anti-IgG1). PLA was performed following the manufacturer’s instructions in the assay kit (Duolink PLA; Sigma–Aldrich). To obtain the correct representation of the PLA signal for each condition, 30 fields per condition were observed using a fluorescence microscope (Eclipse TiU; Nikon, Japan). The PLA signals (red dots) were automatically quantified using ImageJ software (with an in-house-developed plug-in). […]
Supplementary file 13046_2022_2314_MOESM3_ESM.pdf: Additional file 3: Supplementary Figure 1. […] The expression of all CD44 isoforms (A), CD44 variant 3 (B), CD44 variant 6 (C) and TrkA ([…]; D) was evaluated by RT–qPCR (normalized using PUM-1). No expression of CD44, CD44 variants [3 or 6] or TrkA was detected in COS-7 cells (A-D) compared with that in cells transfected with the expression plasmid carrying each protein. […]

In the case of “NGF: recombinant human β-NGF (Alomone Labs, Israel)”, the “binding to CD44v3 (in words)” value [1] is reported as “No binding; also recorded: NGF did not bind to CD44v3; also recorded: NGF does not bind to CD44v3” and the “effect on TrkA/CD44s or TrkA/CD44v6 complex formation (PLA) in COS-7 cells” value [2] is reported as “Neither wild-type COS-7 cells nor COS-7 cells transfected with TrkA and the CD44s or CD44v6 isoform showed the formation of the dynamic TrkA/CD44 complex in PLA”.
